Data: patent US20180020676A1 (priority 2014, published 2018)

What was measured:
[1] = test system: bean rust (Uromyces appendiculatus); assay: Greenhouse control of bean rust versus […] OPTIMUM and chemical agents; format: in vivo; settings: bean plants, 200 k conidia/ml, ten days after infection; biologicals 1×10^8 cfu/ml, Tebuconazole 50 g a.i./ha, Chlorothalonil 500 g a.i./ha; 0.1875% TACTIC in all
[2] = test system: bean rust (Uromyces appendiculatus); assay: Greenhouse control of bean rust at varying rates of inoculation; format: in vivo; settings: 200K conidia/ml, ten days after infection, biologicals 1×10^8 cfu/ml, Tebuconazole 50 g a.i./ha
Procedure: The formulations and treatment methods used were the same as described for the previous experiment. One day after treatment application, the test plants were infected with bean rust (Uromyces appendiculatus) at an inoculation rate ranging from 50 k to 300 k conidia/ml. Ten days after infection with bean rust (Uromyces appendiculatus) the percent of disease control was evaluated for each of: […]

Row | Structure (SMILES) | Percent Disease Control [1] [%] | Percent Disease Control [2] [a %]
1 | N#Cc1c(Cl)c(Cl)c(Cl)c(C#N)c1Cl [Chlorothalonil] | 100 | 
2 | CC(C)(C)C(O)(CCc1ccc(Cl)cc1)Cn1cncn1 (stereo not drawn) [Tebuconazole] | 100 | 100
